Measured values published in ChEMBL document CHEMBL1157341, “An antimalarial tetrapeptide from the entomopathogenic fungus Hirsutella sp. BCC 1528” (J Nat Prod, 2006).
Activity calls are given as the source filed them. No cut-off for these calls is given here.

Tests used:
BC = assay: Cytotoxicity against human BC cells up to 38 uM by SRB assay; assay type: functional, cell-based
KB = assay: Cytotoxicity against human KB cells up to 38 uM by SRB assay; assay type: functional, cell-based
NCI-H187 = assay: Cytotoxicity against human NCI-H187 cells up to 38 uM by SRB assay; assay type: functional, cell-based
Vero = assay: Cytotoxicity against african green monkey Vero cells by SRB assay; assay type: cell-based; conditions: chlorocebus sabaeus
Plasmodium falciparum = assay: Antimalarial activity against Plasmodium falciparum K1 infected human A+ erythrocytes by [3H]hypoxanthine uptake; assay type: functional, organism-based

IC50 (Plasmodium falciparum): 8 µM
Compound: CC[C@@H](C)[C@H](N)C(=O)N(C)[C@H](Cc1ccccc1)C(=O)N[C@@H](CC(C)C)C(=O)Nc1ccccc1C(=O)O [HIRSUTELLIC ACID A]
Activity (BC): inactive
Activity (KB): inactive
Activity (NCI-H187): inactive
Activity (Vero): Non-toxic
